Source: patent publication US11883436B2, “Method of preparing hematopoietic stem and progenitor cells for transplantation” (THE BOARD OF TRUSTEES OF THE UNIVERSITY OF ILLINOIS, priority 2020, dated 2024)

Assays:
[1] = system: CD34+ UCB cells; assay: CD34+ UCB cell xenotransplants into NSG mice after 2 hour ex vivo treatment; engraftment at 16 weeks; assay type: in vivo, human
Description: CD34^+ UCB Cell Xenotransplants into NSG Mice. All NSG studies were carried out in accordance with, and approval of the Institutional Animal Care and Use Committee of Indiana University School of Medicine and the Guide for the Care and Use of Laboratory animals. Female NOD.Cg-Prkdc^scid I12rg^tm1Wj1/Szj (NSG) mice were obtained from the In Vivo Therapeutics Core of the Indiana University Simon Cancer Center. Animals were maintained under pathogen-free conditions and maintained on Irradiated Global 2018 (Uniprim 4,100 ppm; Harlan Laboratories) food pellets with ad libitum access to autoclaved, acidified tap water under a 12-hour light-dark cycle at 22° C. to 24° C. Mice were irradiated 4 hours prior to transplant (3.0 Gy of ^137Cesium γ-ray irradiation in an irradiator (J. L. Shepherd, Glendale, CA) at a dose rate of 88 cGy/min). CD34^+ UCB cells were thawed in 1% human serum albumin in STEMSPAN® media (STEMCELL Technologies) with human SCF 100 ng/ml and allowed to sit for 2 hours. Cells were then counted and plated at 0.5×10^6 cells/mL in STEMSPAN® media with 1% HSA. Cells were plated and treated with the following for 2 hours at 37° C.: 1, 10, or 50 μM (RS)-Baclofen (Tocris); 1, 10, or 50 μM 2-hydroxy-saclofen (Tocris); vehicle control (DMSO). Cells were harvested and immediately washed with PBS by centrifugation at 300×g for 10 minutes. Mice were transplanted with 20,000 cells each in 200 μL PBS (n=7 mice per group). PB and BM were harvested at 16 weeks post-transplant.
Analysis and Multi-Parametric Flow Cytometry Immunostaining of Xenotransplant Mice. For peripheral blood counts, blood was obtained through retro-orbital bleeding and transferred to EDTA-coated tubes. Peripheral blood cell numbers were determined using a Vet Abc Hematological analyzer (Scil Animal Care). For PB, BM, and spleen analysis of the target populations in xenotransplant mice, the cells were collected using a red blood cell lysis assay (eBioscience). The following primary conjugated monoclonal antibodies were used: anti-human CD34 PE (BD Pharmingen), anti-human AC133 APC (Miltenyi Biotec), anti-human CD19 PECy7 (BD Pharmingen), anti-human CD33 PerCP-Cy5.5 (BD Pharmingen), anti-human CD38 FITC (BD Pharmingen), anti-human CD45 APC-fluorescent dye sold under the tradename ALEXA FLUOR® (AF) 750 (Invitrogen), and the fixable amine reactive viability dye, LiveDead (Violet, Invitrogen).
The lysed PB, BM, and spleen cells were incubated with both human and murine Fc blocking reagent (Miltenyi Biotec) for 10 minutes on ice. Briefly, cells were incubated with the titered antibodies listed above for 30 minutes at 4° C., washed twice in PBS with 2% fetal bovine serum, fixed in 1% PFA (Tousimis), and analyzed within 24 hours on a BD Fortessa™ flow cytometer (BD, Franklin Lakes, NJ, USA) equipped with a 405 nm violet laser, 488 nm blue laser, 640 nm red laser, and 561 nm yellow-green laser. Approximately 100,000 events per sample were acquired uncompensated and exported as FCS 3.1 files, and analyzed utilizing FlowJo software, version 9.9.6 (Tree Star, Inc). “Fluorescent minus one” (FMO) gating controls were also used to ensure proper gating of positive events (Estes, et al. (2010) Curr. Prot. Cytometry 9:9.33.331-11; Estes, et al. (2010) Cytometry Part A 77:831-839).
Findings from the mouse model indicated a role for Gabbr1 neuroreceptor in two aspects of hematopoiesis: proliferation of HSPCs and differentiation of B lineage cells. To evaluate functional conservation of Gabbr1 in hematopoiesis, and translational potentials of GABA signaling for HSPCs, CD34^+ UCB cells were exposed for 2 hours in vitro with increasing doses of either baclofen (Bac), a clinically approved GABA agonist (Bowery, et al. (1980) Nature 283(5742):92-94), or 2-hydroxy-saclofen (Sac), a selective antagonist of GABA B receptor (Kerr, et al. (1988) Neurosci. Lett. 92(1):92-96). […]

[2] = system: CD34+ UCB progenitors; assay: Human umbilical cord blood (UCB) colony forming assays; assay type: cell-based
Description: Human Umbilical Cord Blood (UCB) Colony Forming Assays. Colony forming assays were carried out with either CD34^+ UCB progenitors treated as above prior to xenotransplant (i.e., input cells), or from xenotransplant recipient BM after 16 weeks (i.e., output cells). Input cells were plated at a density of 1×10^3 cells/dish. Output cells were plated at a density of 2×10^5 cells/dish. Cells were mixed with METHOCULT® M3434 culture medium (STEMCELL Technologies) and plated into each of three 35-mm gridded dishes. Dishes were incubated at 37° C. for 12 days and colonies were enumerated under a bright light microscope. A clonogenic colony contained at least 50 cells or greater. Findings from the mouse model indicated a role for Gabbr1 neuroreceptor in two aspects of hematopoiesis: proliferation of HSPCs and differentiation of B lineage cells. To evaluate functional conservation of Gabbr1 in hematopoiesis, and translational potentials of GABA signaling for HSPCs, CD34^+ UCB cells were exposed for 2 hours in vitro with increasing doses of either baclofen (Bac), a clinically approved GABA agonist (Bowery, et al. (1980) Nature 283(5742):92-94), or 2-hydroxy-saclofen (Sac), a selective antagonist of GABA B receptor (Kerr, et al. (1988) Neurosci. Lett. 92(1):92-96). […]

[3] = system: LSK progenitors; assay: OP9 co-culture B cell differentiation of LSK progenitors treated with Baclofen; assay type: cell-based, mouse
Description: In vitro B Cell Differentiation Assay. LSK progenitors (4,000) from wild-type and Gabbr1^−/− mice were directly sorted onto pre-prepared OP9 stromal cells with 1 mL complete DMEM medium containing 10% FBS, 1 ng/mL IL-7, and 5 ng/mL Flt-3L. Three and six days later, 1 mL complete DMEM medium was added. One week after initial culture, all cells including OP9 cells were mechanically detached and filtered with a […] cell strainer. Cells were passaged onto fresh OP9 stromal cells with complete medium. Medium was changed every three days. At 14 days after initial culture, all cells were detached and stained with CD45.2, CD19, B220 and CD11b antibodies. The numbers of the different hematopoietic cell populations in each well were calculated by multiplying the total cell numbers from each well with the frequencies of each population. To assess the effects of Gabbr1 on myeloid cell differentiation from LSK cells, the DMEM medium containing 10% FBS, 1 ng/ml IL-7, 5 ng/ml Flt-3L, 5 ng/ml IL-6, 6 ng/ml IL-3 was used. Fourteen days after sorted LSK cells were cultured on OP9 cells, numbers of CD11b^+ and Gr-1^+ cells were measured via flow cytometry.
In addition, OP9 co-culture experiments were carried out to differentiate HSPCs in vitro toward B lineages. LSK progenitors (3,000-4,000 cells) were sorted from wild-type or Gabbr1 null mutants. These cells were plated on a stromal OP9 cells and induced to differentiate into B cells by supplementing media (a-MEM 25% HYCLONE™ FBS) with IL-7 (1 ng/mL) and Flt3L (5 ng/mL). […]
To test if OP9 co-cultures would respond to GABBR1 agonist during B cell differentiation, and allow downstream biochemical analysis, the co-cultures were treated with Baclofen. […] Cultures were harvested and analyzed for cell surface marker expression (B220^+ and GABBR1^+) by flow cytometry at day 12.
As part of this self-regulating direct feedback mechanism, it was also determined whether there were any changes in GABBR1 surface expression in B lineages using flow cytometry. […]

[4] = system: GAD1/2f/f; CD79a/Mb1-Cre HSPCs (LSK); assay: OP9 co-culture B cell differentiation of GAD1/2-deleted HSPCs with Baclofen in the media; assay type: cell-based, mouse; details: media supplemented with agonist, 12 days
Source text: To genetically block GABA production during B cell differentiation, the B lineage Cre lines CD79a/Mb1-Cre (19) and CD19-Cre were used (Rickert, et al. (1997) Nucl. Acids Res. 25(6):1317-8). These lines were crossed to a GAD1/2-floxed allele (Meng, et al. (2016) Proc. Natl. Acad. Sci. USA 113(13):3645-50) that also carries the Ai14 Lox-Stop-Lox-tdTomato Cre reporter (Madisen, et al. (2010) Nat. Neurosci. 13(1):133-40). At 6-8 weeks of age, BM were harvested and HSPCs (LSK) were sorted from GAD1/2^f/f; CD79a/Mb1-Cre (Cd79a KO) and GAD1/2^f/f-CD19-Cre (Cd19 KO) mice, as well as littermate Cre-negative controls (wild-type). GAD1/2^ff/ excised by Cre recombination will delete the only enzymes that can produce GABA. HSPCs were plated, 3,000-4,000 per well, in OP9 co-culture and were differentiated for 12 days. Cells were harvested from co-cultures for analysis by flow cytometry. The Ai14 Cre reporter was used to confirm that >95% of CD19^+ and/or B220^+ cells were tdTomato^+ as an indication of robust Cre excision in B lineages. Removal of GAD1/2 with CD79a/Mb1-Cre, but not CD19-Cre, led to dramatic reduction of absolute numbers of CD45^+ hematopoietic and B220^+ B lineages. The percentage of B220^+ cells decreased with GAD1/2 deletion by CD79a/Mb1-Cre.

[5] = system: HSPC; details: literature comparison; cited from earlier work
[6] = 10 μM vs vehicle control, spleen of transplanted NSG mice

Q: For NCC(CC(=O)O)c1ccc(Cl)cc1 (racemic) [Baclofen, 4-amino-3-(4-chorophenyl)-butanoic acid], which “progenitor engraftment CD38+, BM chimerism” value ([1]; 10 μM vs vehicle control, BM, 16 weeks) is on record?
A: significant increases

Q: What about the “CD19+ B-cell reconstitution in spleen” value [1, 6] of the same compound?
A: two-fold

Q: And the “overall engraftment in spleen” value [1, 6]?
A: significant increases in overall engraftment

Q: And the “progenitor-specific CD34+ BM engraftment in NSG mice” value ([1]; 10 μM, 2 hours ex vivo, 16 weeks post-transplant)?
A: significant improvement

Q: And the “engraftment of hCD45+ cells in NSG recipients (BM)” value ([1]; 10 μM, 2 hours ex vivo, 16 weeks post-transplant, vs vehicle control)?
A: dramatic enhancement over vehicle control

Q: And the “chimerism, fold higher (long-term engraftment)” value ([1]; UCB CD34+ cells, 2 hour treatment, 10 μM dose, before transplantation)?
A: 2- to 8 fold

Q: What about the “BM chimerism and progenitor numbers in xenograft mouse model” value ([1]; human CD34+ UCB HSPCs, up to 16 weeks) of the same compound?
A: sustained increases

Q: And the “in vitro CFUs of CD34+ UCB cells” value ([2]; input cells, after 2-hour treatment)?
A: did not produce increased colonies

Q: What about the “progenitor colonies (CFU) in BM of NSG mice transplanted with treated CD34+ UCB cells, vs controls” value ([2]; output cells, 16 weeks post-transplantation) of the same compound?
A: three-fold

Q: What about the “B cell production (B220+ cell number)” value ([3]; 1 μM, day 12) of the same compound?
A: reached significance in its stimulation of B cell production

Q: And the “B cell number across dose curve” value ([3]; 0.5, 1.0, 5.0, 10 μM, day 12)?
A: trend of B cell number increase, then decrease

Q: And the “percentage of B220+ cells with surface expression of GABBR1+” value ([3]; 0.5, 1, 5, 10 μM, day 12, flow cytometry)?
A: decreased

Q: And the “rescue of B cell differentiation defect due to GAD1/2 deletion” value [4]?
A: partially rescues the defect

Q: Which “engraftment (CD45+, CD34+) in NSG mice” value ([1]; 1, 10 or 50 μM, 2 hours ex vivo, 16 weeks post-transplant) does the source give for NCC(O)(CS(=O)(=O)O)c1ccc(Cl)cc1 (stereo not drawn) [2-hydroxy-saclofen, 3-Amino-2-(4-chlorophenyl)-2-hydroxypropyl-sulfonic acid] here?
A: did not significantly increase engraftment at any of the tested doses

Q: With CCCCC[C@H](O)/C=C/[C@H]1[C@H](O)CC(=O)[C@@H]1C/C=C\CCCC(=O)O [Prostaglandin E2] as the compound, how does the “improvement in long-term engraftment” value [5] read?
A: 2- to 4 fold
